US10010629B2, “Compositions and methods for in vivo imaging” (The Regents of the University of California, priority 2010, dated 2018)
Entries after “also recorded” stand apart in the source; their conditions may differ.

Assays:
L2G85 mice [1] = test: Intestinal uptake after oral gavage, bioluminescence imaging; type: in vivo; details: for bioluminescent signal in the live animal after oral gavage: luciferase-expressing mice
Protocol: To translate the imaging technique described above to in vivo systems, L2G85 mice were utilized. L2G85 mice express luciferase throughout their bodies. Initial experiments focused on detection of intestinal FFA uptake using oral gavages of the FFA-luc compound. […] This is consistent with known fatty acid uptake localization and kinetics.
Gavage of FFA-luc and FFA-S-luc: Anesthetized mice received a 50 μl volume gavage of 300 μM FFA-luc or FFA-S-luc (0.01 mg) in a vehicle of 1:1 PEG 400 and propylene glycol. Mice were awake for 5 minutes post-gavage to stimulate peristalsis before they were re-anesthetized for imaging. Mice were under constant isoflurane administration in the IVIS Spectrum In Vivo Imager and luminescent images were acquired with a 5-minute exposure back to back for 60 minutes.
CT scans: Mice received a 100 μl volume gavage of 80 mg barium sulfate. After one hour, mice received a second barium sulfate gavage, immediately followed by a 50 μl volume gavage of 300 μM FFA-luc (0.01 mg) in a vehicle of 1:1 PEG 400 and propylene glycol. Mice were placed in a Mouse Imaging Shuttle Adaptor (Caliper Life Sciences) and luminescent images were acquired with a 5-minute exposure back to back for 60 minutes. Mice were then transferred to the Quantum FX μCT for CT imaging without disruption of position. Co-registration of luminescent and CT images were performed with Living Image software.

L2G85 mice [2] = test: BAT imaging after intraperitoneal injection; type: in vivo; details: for signal from BAT (intact and excised) after intraperitoneal injection: i.p., 0.1% BSA in PBS, 30 min
Protocol: Intraperitoneal injection: Anesthetized mice received a 100 μl volume intraperitoneal injection of 200 μM FFA-luc or FFA-S-luc (0.014 mg) bound to 0.1% BSA in PBS immediately prior to imaging. Luminescent images were acquired with a 3-minute exposure back to back for 30-minutes.
BAT imaging: Anesthetized mice received 100 μl volume intraperitoneal injection of 200 μM FFA-luc (0.014 mg) immediately prior to imaging. Luminescent images were acquired with a 3-minute exposure back to back for 30-minutes. For BAT activation imaging, mice received intraperitoneal injections of the β-adrenergic stimulator CL316,243 at 1 mg/kg 20 minutes prior to the FFA-luc injection.

3T3-L1-luc adipocytes = test: Cell-based fatty acid uptake assay (bioluminescence), adipocytes; details: BSA-bound, 0-100 μM (comparison at 20 μM, 30 min)
Protocol: (§1) Luciferase expressing cellular model (3T3-L1-Luc Cells): 3T3-L1 fibroblasts (ATCC) were stably transfected with the pGL4.51[luc2/CMV/Neo] vector (Promega). Clones with the highest level of luciferase expression were isolated and expanded.
Cell culture and treatment: 3T3-L1-luc fibroblasts were grown in DMEM containing 10% fetal bovine serum with 2 mM L-glutamine and 1% penicillin/streptomycin (DMEM/FBS). […] Differentiated cells were used in experiments on days 8-12 of differentiation.
(§2) Cell-based fatty acid uptake assays: 3T3-L1-luc adipocytes or fibroblasts were seeded into black-wall/clear-bottom-96-well plates (Costar) and treated with 100 μl of a fatty acid uptake buffer consisting of 0.1% BSA in Hank's balanced salt solution (HBSS) in addition to 2-100 μM of the compound. Plates were read immediately and luminescent images were acquired with a 5-minute exposure time back to back for 60 minutes. All cell-based assays utilized the same kinetic acquisition settings.

3T3-L1-luc fibroblasts = test: Cell-based fatty acid uptake assay (bioluminescence), undifferentiated fibroblasts; details: 20 μM FFA-luc, 30 min
Protocol: as §1
Cell culture and treatment: 3T3-L1-luc fibroblasts were grown in DMEM containing 10% fetal bovine serum with 2 mM L-glutamine and 1% penicillin/streptomycin (DMEM/FBS). A cell differentiation protocol was followed as previously described (Baldini et al., Cloning of a Rab3 isotype predominantly expressed in adipocytes. Proc Natl Acad Sci USA 89, 5049 (Jun. 1, 1992); Stahl et al., Insulin causes fatty acid transport protein translocation and enhanced fatty acid uptake in adipocytes. Dev Cell 2, 477 (2002)). […]
as §2, with “All cell-based assays utilized the same kinetic acquisition settings.” left out

L2G85 mice [3] = details: mouse, in vivo
Protocol: (§3) To monitor uptake of FFA-luc by internal organs, FFA-luc was bound to the physiological carrier of fatty acids in the serum, i.e. albumin. As a control, animals were injected with an albumin luciferin mix.
(§4) Animal models: Transgenic mice ubiquitously expressing luciferase under control of the actin promoter were used.
(§5) Imaging equipment and software: All luminescent/photographic images were captured with the IVIS Spectrum (Caliper Life Sciences). Total flux (photons/sec) of regions of interest were calculated with the IVIS Living Image software. CT data was acquired with the Quantum FX μCT (Caliper Life Sciences).
(§6) Intravenous injection: Restrained mice received 100 μl volume tail vein injections of 20 μM FFA-luc or FFA-S-luc (0.0014 mg) bound to 0.1% bovine serum albumin (BSA) in phosphate buffered saline (PBS). Mice were immediately anesthetized and luminescent images with a 1-minute exposure were acquired.

[4] = system: FFA-luc uptake by 3T3-L1 adipocytes; test: FFA-SS-Luc competition assay; type: cell-based
Protocol: FFA-SS-Luc competition assay: 3T3-L1-luc adipocytes were seeded into black-wall/clear-bottom-96-well plates (Costar) and treated with 100 μl fatty acid uptake buffer including 20 μM FFA-luc and a titration of 0-2 mM oleate or methyl-oleate immediately prior to imaging.

L2G85 mice [5] = test: Uptake after intravenous injection (albumin-bound), bioluminescence imaging; details: i.v., bound to/mixed with albumin
Protocol: as §3, §4, §5, §6

[6] = system: FFA-luc uptake by 3T3-L1-luc adipocytes; test: Insulin-mediated uptake of FFA-luc; type: cell-based; details: 20 μM FFA-luc
Protocol: Insulin-mediated uptake of FFA-luc: 3T3-L1-luc adipocytes were seeded into black-wall/clear-bottom-96-well plates (Costar). One group of cells was serum starved in DMEM for 5 hours followed by the addition of […] fatty acid uptake buffer with 20 μM FFA-luc immediately prior to imaging. A second group of cells was treated with DMEM/fetal bovine serum (FBS) for 5 hours followed by the addition of 100 μl fatty acid uptake buffer with 20 μM FFA-luc and 1 ug/mL insulin immediately prior to imaging.

Compound: O=C(O)CCCCCCCCCCCCCCCSCCCOC(=O)Oc1ccc2nc(C3=N[C@@H](C(=O)O)CS3)sc2c1 [FFA-S-luc, (S)-2-(6-((3-(15-carboxypentadecylthio)propoxy)carbonyloxy)benzo[d]thiazol-2-yl)-4,5-dihydrothiazole-4-carboxylic acid]
- bioluminescent signal in the live animal after oral gavage (L2G85 mice [1]): weak and diffuse signal
- signal from BAT (intact and excised) after intraperitoneal injection (L2G85 mice [2]): little or no signal

Compound: O=C(O)CCCCCCCCCCCCCCCSSCCCOC(=O)Oc1ccc2nc(C3=N[C@@H](C(=O)O)CS3)sc2c1 [FFA-luc, (S)-2-(6-((3-((15-carboxypentadecyl)disulfanyl)propoxy)carbonyloxy)benzo[d]thiazol-2-yl)-4,5-dihydrothiazole-4-carboxylic acid]
- uptake by luciferase-expressing 3T3 L1 adipocytes (light signal / uptake rate) (3T3-L1-luc adipocytes): robust, dose-dependent signal
- uptake kinetics by undifferentiated fibroblast-like 3T3 L1 cells versus adipocytes (3T3-L1-luc fibroblasts): significantly lower
- signal from small intestine, excised GI tract after oral gavage (L2G85 mice [1]; ex vivo, small intestine / duodenum): robust signal; also recorded: strongest signal was generated by the proximal duodenum
- signal from stomach and colon, excised GI tract after oral gavage (L2G85 mice [1]; ex vivo, stomach and colon): negative
- bioluminescent signal in the live animal after oral gavage (L2G85 mice [1]): distinct signal emanating from an area consistent with the small intestine; also recorded: abdominal signal
- signal from BAT (intact and excised) after intraperitoneal injection (L2G85 mice [2]): robust light signal
- uptake by excised organs after tail vein injection (L2G85 mice [3]): taken up by several organs
- light production of removed interscapular brown adipose tissue after injection (L2G85 mice [3]; iv): robust light production
- photon emission from isolated heart after intravenous injection (L2G85 mice [3]; iv): high signal
- photon emission from isolated liver after intravenous injection (L2G85 mice [3]; iv): low signal

Compound: C[C@H](Cc1ccc2c(c1)OC(C(=O)[O-])(C(=O)[O-])O2)NC[C@H](O)c1cccc(Cl)c1.[Na+].[Na+] [CL316,243, reference compound]
- effect on compound 1 uptake by BAT (L2G85 mice [2]; CL316,243 1 mg/kg i.p.): highly reproducible and significant increase

Compound: CCCCCCCC/C=C\CCCCCCCC(=O)O [oleate]
- IC50 ([4]; Mus musculus, 3T3-L1, read-out: IC50, inhibition of uptake of FFA-luc by 3T3-L1 adipocytes): 17 µM

Compound: O=C(O)[C@H]1CSC(c2nc3ccc(O)cc3s2)=N1 [luciferin, reference compound]
- uptake by luciferase-expressing 3T3 L1 adipocytes (light signal / uptake rate) (3T3-L1-luc adipocytes): significantly lower uptake rates
- bioluminescent signal in the live animal after intravenous injection (L2G85 mice [5]): very rapid, bright, and delocalized signal

Compound: insulin
- effect on FFA-luc uptake by adipocytes [6]: stimulatory effect

Compound: CCCCCCCC/C=C\CCCCCCCC(=O)OC [methyl-oleate]
- competition with FFA-luc uptake by adipocytes ([4]; 20 μM FFA-luc, excess competitor (0-2 mM titration)): did not compete and not

Compound: COC(=O)CCCCCCCCCCCCCCCSSCCCOC(=O)Oc1ccc2nc(C3=N[C@@H](C(=O)O)CS3)sc2c1 [Me-FFA-luc, (S)-2-(6-((3-((16-methoxy-16-oxohexadecyl)disulfanyl)propoxy)carbonyloxy)benzo[d]thiazol-2-yl)-4,5-dihydrothiazole-4-carboxylic acid]
- uptake by luciferase-expressing 3T3 L1 adipocytes (light signal / uptake rate) (3T3-L1-luc adipocytes; listed as methyl ester of the FFA-luc): slower, non-saturable uptake
- uptake by luciferase-expressing 3T3 L1 adipocytes (light signal / uptake rate) (3T3-L1-luc adipocytes; listed as methyl-FFA-luc): significantly lower uptake rates
